From patent US20120178915A1, “PYRIMIDINE DERIVATIVES AND ANALOGS, PREPARATION METHOD AND USE THEREOF” (priority 2009, published 2012)
≈ marks a conversion by molar mass, not a printed value. Like-named read-outs stand apart in the source and are kept apart here.

Assays:
Type in all cases: cell-based
[1] = test system: Bacillus subtilis 168; experiment: microbe, parasite or virus in culture; details: 37° C., 24 h, read-out: Minimum Inhibitory Concentration, MIC
[2] = test system: Clostridium tetani; experiment: microbe, parasite or virus in culture; details: 24 h
[3] = test system: Staphylococcus aureus 29231; experiment: microbe, parasite or virus in culture; details: 37° C., 24 h, read-out: Minimum Inhibitory Concentration, MIC
[4] = test system: Pyogenic Streptococcus; experiment: microbe, parasite or virus in culture; details: 37° C., 24 h, read-out: Minimum Inhibitory Concentration, MIC
[5] = test system: Clostridium perfringens; experiment: microbe, parasite or virus in culture; details: 24 h, read-out: Minimum Inhibitory Concentration, MIC
[6] = test system: Oral candidiasis; experiment: MIC broth microdilution; details: Microorganism 32, Oral candidiasis; 37° C., 24 h; read-out: Minimum Inhibitory Concentration, MIC
[7] = test system: Streptococcus 10342; experiment: MIC broth microdilution; details: 37° C., 24 h, read-out: Minimum Inhibitory Concentration, MIC
[8] = test system: Streptococcus pneumoniae 6303 (PRSP); experiment: microbe, parasite or virus in culture; details: 24 h, read-out: Minimum Inhibitory Concentration, MIC
[9] = test system: Staphylococcus aureus 43300 (MRSA); experiment: microbe, parasite or virus in culture; details: 24 h, read-out: Minimum Inhibitory Concentration, MIC
[10] = test system: Gram-positive Bacteria; details: Enterococcus faecalis (VRE), Staphylococcus aureus (MRSA), Streptococcus pneumoniae 6303 (PRSP); Bacillus cereus, Bacillus subtilis, Enterococcus faecalis, Staphylococcus aureus, Streptococcus pneumoniae, Streptococcus agalactiae B and streptococci 4
[11] = test system: Bacillus anthracis 1; experiment: microbe, parasite or virus in culture; details: Bacillus anthracis, 1, 24 h, read-out: Minimum Inhibitory Concentration, MIC
[12] = test system: Corynebacterium diphtheriae; experiment: microbe, parasite or virus in culture; details: 37° C., 24 h, read-out: Minimum Inhibitory Concentration, MIC
[13] = test system: Streptococcus pneumoniae 62; experiment: microbe, parasite or virus in culture; details: 37° C., 24 h, read-out: Minimum Inhibitory Concentration, MIC
[14] = test system: Bacillus subtilis 82; experiment: microbe, parasite or virus in culture; details: 37° C., 24 h, read-out: Minimum Inhibitory Concentration, MIC
[15] = test system: green Streptococcus 1009; experiment: microbe, parasite or virus in culture; details: 37° C., 24 h, read-out: Minimum Inhibitory Concentration, MIC
[16] = test system: Streptococcus pneumoniae M2; experiment: microbe, parasite or virus in culture; details: 37° C., 24 h, read-out: Minimum Inhibitory Concentration, MIC
[17] = test system: Enterococcus faecalis 1513 (VRE); experiment: microbe, parasite or virus in culture; details: 24 h, read-out: Minimum Inhibitory Concentration, MIC
[18] = test system: Enterococcus faecalis 51299; experiment: microbe, parasite or virus in culture; details: Enterococcus faecalis, 51299, 24 h, read-out: Minimum Inhibitory Concentration, MIC
[19] = test system: Enterococcus fecal F631 (VRE); experiment: organism not typed; details: 24 h, read-out: Minimum Inhibitory Concentration, MIC
[20] = test system: Staphylococcus aureus 703 (MRSA); experiment: microbe, parasite or virus in culture; details: 24 h, read-out: Minimum Inhibitory Concentration, MIC
[21] = test system: Streptococcus agalactiae B; experiment: microbe, parasite or virus in culture; details: 37° C., 24 h, read-out: Minimum Inhibitory Concentration, MIC
[22] = test system: Enterococcus faecalis 19433; experiment: microbe, parasite or virus in culture; details: 37° C., 24 h, read-out: Minimum Inhibitory Concentration, MIC
[23] = test system: Enterococcus faecalis 29212; experiment: microbe, parasite or virus in culture; details: 37° C., 24 h, read-out: Minimum Inhibitory Concentration, MIC
[24] = test system: Staphylococcus aureus 705 (MRSA); experiment: microbe, parasite or virus in culture; details: 24 h, read-out: Minimum Inhibitory Concentration, MIC
[25] = MIC broth microdilution; details: Microorganism 33, Dermatophytosis; 37° C., 24 h; read-out: Minimum Inhibitory Concentration, MIC
[26] = test system: Streptococcus bovis 10035; experiment: microbe, parasite or virus in culture; details: Streptococcus equinus, 37° C., 24 h, read-out: Minimum Inhibitory Concentration, MIC
[27] = test system: Enterococcus faecalis F2518 (VRE); experiment: microbe, parasite or virus in culture; details: 24 h, read-out: Minimum Inhibitory Concentration, MIC
[28] = test system: Bacillus cereus 2; experiment: microbe, parasite or virus in culture; details: 37° C., 24 h, read-out: Minimum Inhibitory Concentration, MIC
[29] = test system: Streptococcus pneumoniae 10351; experiment: microbe, parasite or virus in culture; details: 37° C., 24 h, read-out: Minimum Inhibitory Concentration, MIC
[30] = test system: Bacillus cereus 246; experiment: microbe, parasite or virus in culture; details: 37° C., 24 h, read-out: Minimum Inhibitory Concentration, MIC
[31] = test system: Enterococcus faecalis 583 (VRE); experiment: microbe, parasite or virus in culture; details: 24 h, read-out: Minimum Inhibitory Concentration, MIC
[32] = test system: Streptococcus pneumoniae 6301; experiment: microbe, parasite or virus in culture; details: 37° C., 24 h, read-out: Minimum Inhibitory Concentration, MIC
[33] = test system: Staphylococcus aureus 704 (MRSA); experiment: microbe, parasite or virus in culture; details: 24 h, read-out: Minimum Inhibitory Concentration, MIC
[34] = read-out: Minimum Inhibitory Concentration, MIC, Microorganism 29, Clostridium tetani, 37° C.
[35] = read-out: Minimum Inhibitory Concentration, MIC, Microorganism 30, Clostridium tetani (second line of that name), 37° C.

Q: With `Cc1nn2c(=O)cc(-c3ccc(C(F)(F)F)nc3)[nH]c2c1-c1ccc(Cl)cc1Cl` [Compound 8] as the compound, how does the MIC [1] read?
A: 0.66 µM (≈ 0.29 µg/mL)

Q: And the MIC [2, 34]?
A: 70.3 µM (≈ 30.9 µg/mL)

Q: What about the MIC [2, 35] of the same compound?
A: 50.6 µM (≈ 22.2 µg/mL)

Q: What about the MIC [3] of the same compound?
A: 10.3 µM (≈ 4.52 µg/mL)

Q: And the MIC [4]?
A: 0.63 µM (≈ 0.277 µg/mL)

Q: And the MIC [5]?
A: 61.3 µM (≈ 26.9 µg/mL)

Q: What about the MIC [6] of the same compound?
A: 20.3 µM (≈ 8.92 µg/mL)

Q: What about the MIC [7] of the same compound?
A: 0.3 µM (≈ 0.132 µg/mL)

Q: What about the MIC [8] of the same compound?
A: 1.23 µM (≈ 0.54 µg/mL)

Q: What about the MIC [9] of the same compound?
A: 0.6 µM (≈ 0.264 µg/mL)

Q: What about the “inhibition of growth (conclusion from MICs)” value [10] of the same compound?
A: significantly inhibited the growth

Q: What about the MIC [11] of the same compound?
A: 56.8 µM (≈ 24.9 µg/mL)

Q: And the MIC [12]?
A: 30.3 µM (≈ 13.3 µg/mL)

Q: What about the MIC [13] of the same compound?
A: 0.63 µM (≈ 0.277 µg/mL)

Q: What about the MIC [14] of the same compound?
A: 1.35 µM (≈ 0.593 µg/mL)

Q: What about the MIC [15] of the same compound?
A: 0.3 µM (≈ 0.132 µg/mL)

Q: What about the MIC [16] of the same compound?
A: 1.25 µM (≈ 0.549 µg/mL)

Q: What about the MIC [17] of the same compound?
A: 0.16 µM (≈ 0.0703 µg/mL)

Q: And the MIC [18]?
A: 0.36 µM (≈ 0.158 µg/mL)

Q: What about the MIC [19] of the same compound?
A: 0.04 µM (≈ 0.0176 µg/mL)

Q: And the MIC [20]?
A: 1.23 µM (≈ 0.54 µg/mL)

Q: And the MIC [21]?
A: 0.56 µM (≈ 0.246 µg/mL)

Q: What about the MIC [22] of the same compound?
A: 11.5 µM (≈ 5.05 µg/mL)

Q: And the MIC [23]?
A: 0.66 µM (≈ 0.29 µg/mL)

Q: What about the MIC [24] of the same compound?
A: 50.6 µM (≈ 22.2 µg/mL)

Q: What about the MIC [25] of the same compound?
A: 31.8 µM (≈ 14 µg/mL)

Q: And the MIC [26]?
A: 10.5 µM (≈ 4.61 µg/mL)

Q: What about the MIC [27] of the same compound?
A: 0.32 µM (≈ 0.141 µg/mL)

Q: What about the MIC [28] of the same compound?
A: 0.65 µM (≈ 0.285 µg/mL)

Q: What about the MIC [29] of the same compound?
A: 0.04 µM (≈ 0.0176 µg/mL)

Q: And the MIC [30]?
A: 2.6 µM (≈ 1.14 µg/mL)

Q: What about the MIC [31] of the same compound?
A: 0.31 µM (≈ 0.136 µg/mL)

Q: What about the MIC [32] of the same compound?
A: 2.5 µM (≈ 1.1 µg/mL)

Q: What about the MIC [33] of the same compound?
A: 10.3 µM (≈ 4.52 µg/mL)

Q: For `Cc1nn2c(=O)cc(-c3ccc(C#N)cc3)[nH]c2c1-c1ccc(Cl)cc1Cl` [Compound 10], which MIC [1] is on record?
A: 0.63 µM (≈ 0.249 µg/mL)

Q: And the MIC [2, 34]?
A: 60.3 µM (≈ 23.8 µg/mL)

Q: And the MIC [2, 35]?
A: 20.3 µM (≈ 8.02 µg/mL)

Q: And the MIC [3]?
A: 0.63 µM (≈ 0.249 µg/mL)

Q: What about the MIC [4] of the same compound?
A: 2.5 µM (≈ 0.988 µg/mL)

Q: What about the MIC [5] of the same compound?
A: 25.1 µM (≈ 9.92 µg/mL)

Q: And the MIC [6]?
A: 99.2 µM (≈ 39.2 µg/mL)

Q: And the MIC [7]?
A: 1.15 µM (≈ 0.455 µg/mL)

Q: What about the MIC [8] of the same compound?
A: 0.04 µM (≈ 0.0158 µg/mL)

Q: And the MIC [9]?
A: 1.23 µM (≈ 0.486 µg/mL)

Q: What about the “inhibition of growth (conclusion from MICs)” value [10] of the same compound?
A: significantly inhibited the growth

Q: And the MIC [11]?
A: 35.6 µM (≈ 14.1 µg/mL)

Q: And the MIC [12]?
A: 70.3 µM (≈ 27.8 µg/mL)

Q: What about the MIC [13] of the same compound?
A: 0.25 µM (≈ 0.0988 µg/mL)

Q: And the MIC [14]?
A: 0.63 µM (≈ 0.249 µg/mL)

Q: And the MIC [15]?
A: 1.45 µM (≈ 0.573 µg/mL)

Q: What about the MIC [16] of the same compound?
A: 0.31 µM (≈ 0.123 µg/mL)

Q: And the MIC [17]?
A: 0.61 µM (≈ 0.241 µg/mL)

Q: What about the MIC [18] of the same compound?
A: 2.3 µM (≈ 0.909 µg/mL)

Q: What about the MIC [19] of the same compound?
A: 0.56 µM (≈ 0.221 µg/mL)

Q: And the MIC [20]?
A: 0.34 µM (≈ 0.134 µg/mL)

Q: And the MIC [21]?
A: 5 µM (≈ 1.98 µg/mL)

Q: What about the MIC [22] of the same compound?
A: 0.02 µM (≈ 0.0079 µg/mL)

Q: And the MIC [23]?
A: 1.25 µM (≈ 0.494 µg/mL)

Q: What about the MIC [24] of the same compound?
A: 0.31 µM (≈ 0.123 µg/mL)

Q: And the MIC [25]?
A: 55.9 µM (≈ 22.1 µg/mL)

Q: And the MIC [26]?
A: 1.05 µM (≈ 0.415 µg/mL)

Q: And the MIC [27]?
A: 0.31 µM (≈ 0.123 µg/mL)

Q: What about the MIC [28] of the same compound?
A: 0.31 µM (≈ 0.123 µg/mL)

Q: What about the MIC [29] of the same compound?
A: 1.35 µM (≈ 0.534 µg/mL)

Q: And the MIC [30]?
A: 1.32 µM (≈ 0.522 µg/mL)

Q: And the MIC [31]?
A: 0.99 µM (≈ 0.391 µg/mL)

Q: What about the MIC [32] of the same compound?
A: 0.16 µM (≈ 0.0632 µg/mL)

Q: And the MIC [33]?
A: 0.23 µM (≈ 0.0909 µg/mL)
